{
  "source": "PubChem BioAssay AID1259411",
  "about": "(Chemical Carcinogenesis Research Information System (CCRIS), 2018)",
  "test_system": "rodent carcinogenicity bioassays, tumor incidence",
  "assay": "CCRIS carcinogenicity studies",
  "description": "The CCRIS database contains chemical records with carcinogenicity, mutagenicity, tumor promotion, and tumor inhibition test results. It was developed by the National Cancer Institute (NCI). Data are derived from studies cited in primary journals, current awareness tools, NCI reports, and other sources. Test results have been reviewed by experts in carcinogenesis and mutagenesis.\nCCRIS provides historical information from the years 1985 - 2011. It is no longer updated.\nThis is an archive assay for CCRIS carcinogenicity studies.",
  "note": "Activity calls are given as the source filed them. No rule for the calls is given here.",
  "data": [
    {"smiles": "CCN(CCO)N=O", "values": [
      {"measurement": "carcinogen call", "setting": "Species: HAMSTER, Strain/Sex: SYRIAN/MALE, Route: ORAL, Dose: 0, 1000, 2000 PPM IN DIET FOR 2 WK (STUDY DURATION: 30 WK), Dose: 0, 1000, 2000 PPM IN DIET FOR 2 WK (STUDY DURATION: 30 WK)", "result": "inactive; negative"},
      {"measurement": "carcinogen call", "setting": "Species: MOUSE, Strain/Sex: BALB/C/MALE, Route: ORAL, Dose: 0, 1000, 2000 PPM IN DRINKING WATER FOR 2 WK (STUDY DURATION: 52 WK), Dose: 0, 1000, 2000 PPM IN DRINKING WATER FOR 2 WK (STUDY DURATION: 52 WK), Tumor Site: Type of Lesion: LUNG: TUMOR", "result": "active; positive"},
      {"measurement": "carcinogen call", "setting": "Species: MOUSE, Strain/Sex: BALB/MALE, Route: ORAL, Dose: 0, 1000, 2000 PPM IN DIET FOR 2 WK (STUDY DURATION: 30 WK), Dose: 0, 1000, 2000 PPM IN DIET FOR 2 WK (STUDY DURATION: 30 WK), Tumor Site: Type of Lesion: LUNG: TUMOR", "result": "active; positive"},
      {"measurement": "carcinogen call", "setting": "Species: MOUSE, Strain/Sex: STRAIN-A/MALE, Route: ORAL, Dose: 0, 1000, 2000 PPM IN DIET FOR 2 WK (STUDY DURATION: 30 WK), Dose: 0, 1000, 2000 PPM IN DIET FOR 2 WK (STUDY DURATION: 30 WK), Tumor Site: Type of Lesion: LIVER: TUMOR, LUNG: TUMOR", "result": "active; positive"},
      {"measurement": "carcinogen call", "setting": "Species: RAT, Strain/Sex: F344/MALE, Route: ORAL, Dose: 0, 1000 PPM IN DIET FOR 2 WK (STUDY DURATION: 30 WK)", "result": "inactive; negative"},
      {"measurement": "carcinogen call", "setting": "Species: RAT, Strain/Sex: WISTAR/FEMALE, Route: ORAL, Dose: 0, 1000 PPM IN DIET FOR 2 WK (STUDY DURATION: 30 WK), Tumor Site: Type of Lesion: KIDNEY: RENAL CELL TUMOR", "result": "active; positive"},
      {"measurement": "carcinogen call", "setting": "Species: RAT, Strain/Sex: WISTAR/MALE, Route: ORAL, Dose: 0, 1000, 2000 PPM IN DRINKING WATER FOR 2 WK (STUDY DURATION: 52 WK), Dose: 0, 1000, 2000 PPM IN DRINKING WATER FOR 2 WK (STUDY DURATION: 52 WK), Tumor Site: Type of Lesion: KIDNEY: TUMOR", "result": "active; positive"},
      {"measurement": "carcinogen call", "setting": "Species: RAT, Strain/Sex: WISTAR/MALE, Route: ORAL, Dose: 0, 1000 PPM IN DIET FOR 2 WK (STUDY DURATION: 30 WK), Tumor Site: Type of Lesion: KIDNEY: RENAL CELL TUMOR, LIVER: TUMOR", "result": "active; positive"},
      {"measurement": "carcinogen call", "setting": "Species: RAT, Strain/Sex: WISTAR/MALE, Route: ORAL, Dose: 0, 1000 PPM IN DRINKING WATER FOR 2 WK (STUDY DURATION: 30 WK), Tumor Site: Type of Lesion: KIDNEY: RENAL CELL TUMOR", "result": "active; positive"}
    ]},
    {"smiles": "COCC(=O)N(c1c(C)cccc1C)C(C)C(=O)OC", "note": "(stereo not given)", "values": [
      {"measurement": "carcinogen call", "setting": "Species: Mouse, Strain/Sex: ICI Alderly Park (Swiss strain origin)/Female (60/Group), Route: Oral, Dose: 0, 50, 250, 1250 ppm of 93.8-95.2% metalaxyl in diet for 104 wk, study duration 104 wk, Dose: 0, 50, 250, 1250 ppm of 93.8-95.2% metalaxyl in diet for 104 wk, study duration 104 wk", "result": "inactive; negative"},
      {"measurement": "carcinogen call", "setting": "Species: Mouse, Strain/Sex: ICI Alderly Park (Swiss strain origin)/Male (60/Group), Route: Oral, Dose: 0, 50, 250, 1250 ppm of 93.8-95.2% metalaxyl in diet for 104 wk, study duration 104 wk, Dose: 0, 50, 250, 1250 ppm of 93.8-95.2% metalaxyl in diet for 104 wk, study duration 104 wk", "result": "inactive; negative"},
      {"measurement": "carcinogen call", "setting": "Species: Rat, Strain/Sex: CD (Sprague-Dawley derived)/Female (70/Group), Route: Oral, Dose: 0, 50, 250, 1250 ppm of 93% metalaxyl in diet for 105 wk, study duration 105 wk, Dose: 0, 50, 250, 1250 ppm of 93% metalaxyl in diet for 105 wk, study duration 105 wk, Tumor Site: Type of Lesion: Thyroid: follicular cell adenoma", "result": "active; positive"},
      {"measurement": "carcinogen call", "setting": "Species: Rat, Strain/Sex: CD (Sprague-Dawley derived)/Male (70/Group), Route: Oral, Dose: 0, 50, 250, 1250 ppm of 93% metalaxyl in diet for 105 wk, study duration 105 wk, Dose: 0, 50, 250, 1250 ppm of 93% metalaxyl in diet for 105 wk, study duration 105 wk", "result": "inactive; negative"}
    ]},
    {"smiles": "CC1CN(N=O)C(=O)NC1=O", "note": "(stereo not given)", "values": [
      {"measurement": "carcinogen call", "setting": "Species: RAT, Strain/Sex: MRC-WISTAR/FEMALE, Route: ORAL, Dose: 0, 10 G TOTAL DOSE IN CITRATE BUFFER IN DRINKING WATER 5D/WK FOR 12 MO (STUDY DURATION: 2 YR)", "result": "inactive; negative"},
      {"measurement": "carcinogen call", "setting": "Species: RAT, Strain/Sex: MRC-WISTAR/MALE, Route: ORAL, Dose: 0, 1 G TOTAL DOSE IN CITRATE BUFFER IN DRINKING WATER 5D/WK FOR 12 MO (STUDY DURATION: 2 YR)", "result": "inactive; negative"}
    ]},
    {"smiles": "Cc1cc(-c2ccccc2C)ccc1NO", "values": [
      {"measurement": "carcinogen call", "setting": "Species: RAT, Strain/Sex: ACI/SEG/MALE, Route: INTRAPERITONEAL, Dose: 0, 50 UMOL/KG BW 2X/WK FOR 10 WK BEGINNING AT 3 D OF AGE (STUDY DURATION: 68 WK), Tumor Site: Type of Lesion: COLON: CARCINOMA", "result": "active; positive"},
      {"measurement": "carcinogen call", "setting": "Species: RAT, Strain/Sex: F344/MALE, Route: INTRAPERITONEAL, Dose: 0, 5, 10, 20 MG/KG 1/2 WK FOR 20 WK (STUDY DURATION: 60 WK), Dose: 0, 5, 10, 20 MG/KG 1/2 WK FOR 20 WK (STUDY DURATION: 60 WK), Tumor Site: Type of Lesion: PROSTATE: CARCINOMA, PERITONEUM: TUMOR, COLON: TUMOR, Tumor Site: Type of Lesion: PROSTATE: CARCINOMA, PERITONEUM: TUMOR, COLON: TUMOR", "result": "active; positive"}
    ]},
    {"smiles": "CCC(=O)CNCN=O", "values": [
      {"measurement": "carcinogen call", "setting": "Species: HAMSTER, Strain/Sex: SYRIAN/FEMALE, Route: SUBCUTANEOUS, Dose: 4, 8, 16 MG/KG 1/WK FOR LIFE, Dose: 4, 8, 16 MG/KG 1/WK FOR LIFE, Tumor Site: Type of Lesion: NASAL CAVITY: ADENOCARCINOMA, PAPILLOMA, MUCOEPIDERMOID TUMOR, LARYNX OR PHARYNX: PAPILLARY POLYP, PAPILLOMA, ORAL CAVIT, Tumor Site: Type of Lesion: NASAL CAVITY: ADENOCARCINOMA, PAPILLOMA, MUCOEPIDERMOID TUMOR, LARYNX OR PHARYNX: PAPILLARY POLYP, PAPILLOMA, ORAL CAVIT", "result": "active; positive"},
      {"measurement": "carcinogen call", "setting": "Species: HAMSTER, Strain/Sex: SYRIAN/MALE, Route: SUBCUTANEOUS, Dose: 2.3, 4.6, 9.2 MG/KG 1/WK FOR LIFE, Dose: 2.3, 4.6, 9.2 MG/KG 1/WK FOR LIFE, Tumor Site: Type of Lesion: NASAL CAVITY: ADENOCARCINOMA, PAPILLOMA, MUCOEPIDERMOID TUMOR, LARYNX OR PHARYNX: PAPILLARY POLYP, PAPILLOMA, ORAL CAVIT, Tumor Site: Type of Lesion: NASAL CAVITY: ADENOCARCINOMA, PAPILLOMA, MUCOEPIDERMOID TUMOR, LARYNX OR PHARYNX: PAPILLARY POLYP, PAPILLOMA, ORAL CAVIT", "result": "active; positive"}
    ]},
    {"smiles": "CNC(=O)CSP(=S)(OC)OC", "values": [
      {"measurement": "carcinogen call", "setting": "Species: MOUSE, Strain/Sex: B6C3F1/FEMALE, Route: ORAL, Dose: 0, 250, 500 PPM IN DIET, Dose: 0, 250, 500 PPM IN DIET", "result": "inactive; negative"},
      {"measurement": "carcinogen call", "setting": "Species: MOUSE, Strain/Sex: B6C3F1/MALE, Route: ORAL, Dose: 0, 250, 500 PPM IN DIET, Dose: 0, 250, 500 PPM IN DIET", "result": "inactive; negative"},
      {"measurement": "carcinogen call", "setting": "Species: RAT, Strain/Sex: OSBORNE-MENDEL/FEMALE, Route: ORAL, Dose: 0, 192, 384 PPM IN DIET, TWA, Dose: 0, 192, 384 PPM IN DIET, TWA", "result": "inactive; negative"},
      {"measurement": "carcinogen call", "setting": "Species: RAT, Strain/Sex: OSBORNE-MENDEL/MALE, Route: ORAL, Dose: 0, 155, 310 PPM IN DIET, TWA", "result": "inactive; negative"},
      {"measurement": "carcinogen call", "setting": "Species: RAT, Strain/Sex: WISTAR/FEMALE, Route: ORAL, Dose: 0, 2, 20, 200 PPM IN DIET FOR 2 YR (STUDY DURATION: 2 YR), Dose: 0, 2, 20, 200 PPM IN DIET FOR 2 YR (STUDY DURATION: 2 YR)", "result": "inactive; negative"},
      {"measurement": "carcinogen call", "setting": "Species: RAT, Strain/Sex: WISTAR/MALE, Route: ORAL, Dose: 0, 2, 20, 200 PPM IN DIET FOR 2 YR (STUDY DURATION 2 YR), Dose: 0, 2, 20, 200 PPM IN DIET FOR 2 YR (STUDY DURATION 2 YR)", "result": "inactive; negative"}
    ]}
  ]
}
